From PMC5651349 (Alzheimer's & Dementia : Translational Research & Clinical …, 2016)

How the values were obtained:
[1] = Plasma pharmacokinetics following single dose; assay type: in vivo; settings: both, human, oral
[2] = CSF pharmacokinetics following single dose
[3] = Adverse events, single ascending dose
[4] = Adverse events, multiple ascending dose; settings: MAD
[5] = CSF pharmacokinetics following multiple dosing; settings: both, human, in vivo
[6] = Plasma and urine pharmacokinetics following multiple dosing; settings: for CL renal: Mean renal clearance

SMILES: C[C@@]1(c2cc(NC(=O)c3ccc(C#N)cn3)ccc2F)C=CSC(N)=N1 [JNJ-54861911]
- Tmax [1]: 0.75 to 2 h
- half-life [1]: 9 to 16.1 h
- Single-dose CSF concentrations ([2]; CSF, 1-mg and 3-mg dose level, elderly): generally below the LOQ
- Maximal mean concentrations in CSF ([2]; day 1, single dose, range across 10–150 mg): 2.94 to 22.7 ng/mL
- Serious AEs (SAEs) ([3]; SAD and MAD studies): no serious AEs
- Back pain, participants with AE ([3]; SAD, all JNJ-54861911 participants (10/42)): 23.8%
- Headache, participants with AE ([3]; SAD, all JNJ-54861911 participants (16/42)): 38.1%
- Tolerability ([3]; single and multiple oral doses between 1 and 150 mg (SAD and MAD studies), healthy participants): well-tolerated
- Back pain, participants with AE ([4]; all JNJ-54861911 participants (11/52)): 21.2%
- Headache, participants with AE ([4]; all JNJ-54861911 participants (13/52)): 25.0%
- Tmax [5]: ~4 h
- half-life [5]: 11.7 to 14.4 h
- Tmax ([6]; both, human, in vivo): 2 to 4 h
- half-life ([6]; both, human, in vivo): 14.4 to 18.5 h
- CL renal ([6]; human, in vivo, day 1 (single dose)): 1.85 mL/min
- CL renal ([6]; human, in vivo, day 14): 1.92 mL/min
- Steady state concentrations reached ([6]; plasma, multiple dosing, all cohorts): ≤ 5 days
